Data set [1] has as its system Candida parapsilosis. The experiment in a line: Antifungal activity against Candida parapsilosis CAB 502638 assessed as reduction in fungal growth incubated for 24 hrs by CLSI based broth microdilution method. Type of data set: functional. To be noted: Lodderomyces parapsilosis. (In general: In broth dilution the organism is exposed to a series of concentrations in liquid medium.)

Data set [2] concerns Cryptococcus neoformans. The experiment in a line: Antifungal activity against Cryptococcus neoformans NR41300 assessed as reduction in fungal growth incubated for 48 hrs by CLSI based broth microdilution method. The data set is classed as functional.
The subject of data set [3] is Candida albicans. The experiment in a line: Antifungal activity against Candida albicans SS5314 assessed as reduction in fungal growth by CLSI based broth microdilution method. Type of data set: functional.
The subject of data set [4] is Candida albicans. The data set is described as follows: Antifungal activity against Candida albicans ATCC 10231 assessed as reduction in fungal growth incubated for 24 hrs by CLSI based broth microdilution method. Type of data set: functional.
In data set [5] the test system is Cryptococcus gattii species complex. The experiment in a line: Antifungal activity against Cryptococcus gattii NR43209 assessed as reduction in fungal growth incubated for 48 hrs by CLSI based broth microdilution method. Type of data set: functional, Cryptococcus bacillisporus.
Data set [6] deals with Vero. The experiment in a line: Cytotoxicity against African green monkey Vero cells assessed as reduction in cell viability at 16 ug/ml incubated for 2 hrs by MTS assay. The data set is classed as cell-based. To be noted: chlorocebus sabaeus, dose 16 µg/ml. A general note: Formazan colour is commonly taken as a measure of viable cells.
Data set [7] concerns Candida parapsilosis. The experiment in a line: Antifungal activity against Candida parapsilosis ATCC 22019 assessed as reduction in fungal growth incubated for 24 hrs by CLSI based broth microdilution method. The data set is classed as functional. To be noted: Lodderomyces parapsilosis.
The nature of data set [8]: Cytotoxicity against African green monkey Vero cells assessed as reduction in cell viability incubated for 2 hrs by MTS assay. The data set is classed as cell-based. To be noted: chlorocebus sabaeus.
The test system of data set [9] is Nakaseomyces glabratus. The experiment in a line: Antifungal activity against Candida glabrata ATCC 66032 assessed as reduction in fungal growth incubated for 24 hrs by CLSI based broth microdilution method. Type of data set: functional.
The test system of data set [10] is Lactobacillus gasseri. The data set is described as follows: Antibacterial activity against Lactobacillus gasseri HM-400 assessed as reduction in bacterial growth by CLSI based assay.
Data set [11] deals with Cryptococcus neoformans. The experiment in a line: Antifungal activity against Cryptococcus neoformans NR48770 assessed as reduction in fungal growth incubated for 48 hrs by CLSI based broth microdilution method. The data set is classed as functional.
Data set [12] concerns Candida albicans. The data set is described as follows: Antifungal activity against Candida albicans SS5314 assessed as reduction in fungal growth incubated for 24 hrs by CLSI based broth microdilution method. The data set is classed as functional.
Data set [13] concerns [Candida] auris. The data set is described as follows: Antifungal activity against fluconazole-resistant Candida auris 384 assessed as reduction in fungal growth incubated for 24 hrs by CLSI based broth microdilution method. As to conditions: Candidozyma auris. Type of data set: functional.
In data set [14] the test system is Cryptococcus gattii species complex. The experiment in a line: Antifungal activity against Cryptococcus gattii NR43210 assessed as reduction in fungal growth incubated for 48 hrs by CLSI based broth microdilution method. The data set is classed as functional, Cryptococcus bacillisporus.
Data set [15] deals with Cryptococcus neoformans. The data set is described as follows: Antifungal activity against Cryptococcus neoformans NR41298 assessed as reduction in fungal growth incubated for 48 hrs by CLSI based broth microdilution method. Type of data set: functional.
The subject of data set [16] is Pichia kudriavzevii. The data set is described as follows: Antifungal activity against Candida krusei ATCC 34135 assessed as reduction in fungal growth incubated for 24 hrs by CLSI based broth microdilution method. Type of data set: functional.
The test system of data set [17] is Lactobacillus crispatus. The data set is described as follows: Antibacterial activity against Lactobacillus crispatus HM-370 assessed as reduction in bacterial growth by CLSI based assay.
For data set [18], the system named is Lacticaseibacillus casei. The data set is described as follows: Antibacterial activity against Lactobacillus casei HM-334 assessed as reduction in bacterial growth by CLSI based assay. Type of data set: organism-based.
The test system of data set [19] is Candida albicans. The data set is described as follows: Fungicidal activity against Candida albicans SS5314 assessed as eradication of fungal count at 5XMIC measured after 2 hrs by time kill assay relative to control. Type of data set: functional.
The test system of data set [20] is Pichia kudriavzevii. The experiment in a line: Antifungal activity against Candida krusei CAB 396420 assessed as reduction in fungal growth incubated for 24 hrs by CLSI based broth microdilution method. Type of data set: functional.
Data set [21] relates to Nakaseomyces glabratus. The data set is described as follows: Antifungal activity against Candida glabrata ATCC MYA-2950 assessed as reduction in fungal growth incubated for 24 hrs by CLSI based broth microdilution method. The data set is classed as functional.
Data set [22] relates to Candida albicans. The data set is described as follows: Antifungal activity against fluconazole-resistant Candida albicans NR29448 assessed as reduction in fungal growth incubated for 24 hrs by CLSI based broth microdilution method. The data set is classed as functional.
Data set [23] relates to [Candida] auris. The experiment in a line: Antifungal activity against fluconazole-resistant Candida auris 383 assessed as reduction in fungal growth incubated for 24 hrs by CLSI based broth microdilution method. Type of data set: functional. To be noted: Candidozyma auris.
The test system of data set [24] is [Candida] auris. The experiment in a line: Antifungal activity against fluconazole-resistant Candida auris 381 assessed as reduction in fungal growth incubated for 24 hrs by CLSI based broth microdilution method. Type of data set: functional. As to conditions: Candidozyma auris.

Structures are written as SMILES. Converted amounts (≈) assume the structure as drawn. A value given as a limit tells only on which side of the number the result lay.

In general, CC50 refers to the concentration that lowers cell viability or growth by half.

In the case of `C[C@@H]1[C@H](O)[C@@H](C)/C=C/C=C/C=C/C=C/C=C/C=C/C=C/[C@H](O[C@@H]2O[C@H](C)[C@@H](O)[C@H](N)[C@@H]2O)C[C@@H]2O[C@](O)(C[C@@H](O)C[C@@H](O)[C@H](O)CC[C@@H](O)C[C@@H](O)CC(=O)O[C@H]1C)C[C@H](O)[C@H]2C(=O)O` [AMPHOTERICIN B], the MIC turned out to be 0.5 mg/L (≈ 0.541 µM) in data set [1]; 1 mg/L (≈ 1.08 µM) in data set [2]; 1 mg/L (≈ 1.08 µM) in [3]; 1 mg/L (≈ 1.08 µM) in data set [4]; 1 mg/L (≈ 1.08 µM) in data set [5]; 0.5 mg/L (≈ 0.541 µM) in data set [7]. Also, the MIC was 2 mg/L (≈ 2.16 µM) in data set [9]; more than 128 mg/L in data set [10]; 1 mg/L (≈ 1.08 µM) in data set [11]; 1 mg/L (≈ 1.08 µM) in [12]; 2 mg/L (≈ 2.16 µM) in data set [13]; 1 mg/L (≈ 1.08 µM) in data set [14]. Also, the MIC was 1 mg/L (≈ 1.08 µM) in data set [15]; 2 mg/L (≈ 2.16 µM) in data set [16]; more than 128 mg/L in data set [17]; more than 128 mg/L in [18]; 2 mg/L (≈ 2.16 µM) in data set [20]; 1 mg/L (≈ 1.08 µM) in [21]. Further, the MIC in data set [22] amounted to 1 mg/L (≈ 1.08 µM); in data set [23] it was 1 mg/L (≈ 1.08 µM); in data set [24], 0.5 mg/L (≈ 0.541 µM). Also, the Activity result is on record as “Toxic” in [6] and 100% in data set [19]. Moreover, the CC50 at 2 h in [8] was determined as 8 mg/L (≈ 8.66 µM).

Source of the values: ChEMBL document CHEMBL4680171, “Oxadiazolylthiazoles as novel and selective antifungal agents” (Eur J Med Chem, 2020).
